The test system of data set [1] is dogs. Put plainly: Canine implanted central catheter 72 hour continuous infusion model (clinical and microscopic pathology of vasculature). The format is in vivo. As to the method: To determine the cause of the inflammation and hind limb swelling, a series of 72-hour continuous infusion investigative studies were conducted over the following 6 months. […] The first site of inflammation, the catheter insertion site, caused the dog hind limb swelling and inflammation observed in the early-terminated follow-up study. Increasing infusate pH from 4 to 6 decreased inflammation, improving the inflammatory profile by approximately 3-fold (see FIG. 4).
Confirmation of this was obtained through evaluating the nitroxyl donors through detailed histopathology of the vasculature at the site of insertion of into the femoral vein (15 cm distal to the catheter tip), along the catheter track to the catheter tip, and past the tip downstream 20 cm.
A composite score was calculated from the sum of these findings scores. In FIG. 3, the cumulative histology composite score ranges from 0-2 (low severity) to 11-12 (high severity). […] The NOAEL values determined based on these microscopic pathology markers for a series of nitroxyl donors, expressed in molar equivalent dose rates (μg/kg/min) to CXL-1020, are provided in Table 8.

The subject of the next data set is beagle dogs. Put plainly: Canine peripheral vein toxicity model, 24 hour infusion (clinical pathology markers of inflammation: WBC, fibrinogen, CRP). In kind it is in vivo. How it is done:
Key inflammatory markers measured include white blood cells (WBC), fibrinogen, and C-reactive protein (CRP).
After 24 hours of infusion, clinical pathology changes similar to those observed in previous studies using an implanted central catheter were detected.
Studies were conducted in male and female beagle dogs. Animals were allowed free access to drinking water and a commercial canine diet under standard laboratory conditions. Animals were fasted prior to blood sample collections when indicated by the study protocol. Fluorescent lighting was provided via an automatic timer for approximately 12 hours per day. On occasion, the dark cycle was interrupted intermittently due to study-related activities. Temperature and humidity were monitored and recorded daily and maintained to the maximum extent possible between 64° F. to 84° F. and 30% to 70%, respectively. The dogs were acclimated for a period of at least 1 week. During this period, the animals were weighed weekly and observed with respect to general health and any signs of disease. The animals were acclimated to wearing a jacket for at least three days prior to dose administration. Additionally, the animals were also acclimated to wearing an Elizabethan collar (e-collar) during the jacket acclimation.
Animals were catheterized the day prior to dose administration. A percutaneous catheter was placed (using aseptic technique and sterile bandaging) in the cephalic vein distal to the elbow. The animals were free-moving in their cages during continuous infusion dose administration. To facilitate continuous infusion dose administration, the peripheral catheter was attached to an extension set routed underneath a canine jacket and then attached to a tether infusion system. To prevent the animals from accessing/removing the peripherally placed percutaneous catheter, the catheterization site was bandaged using Vet Wrap and an e-collar was placed on the animals for the duration of the treatment (i.e., the catheterized period). During the pretreatment period, the venous catheter was infused continuously at a rate of approximately 2-4 mL/hr with 0.9% sodium chloride for injection, USP (saline) to maintain catheter patency. Prior to dosing, the infusion system was pre-filled (slow bolus infusion) with the respective dosing solution to ensure that dosing began as soon as the infusion pump was started. The infusion line was connected to a reservoir containing the control or test compound and the infusion was started. Test compositions were infused continuously, at a predetermined constant infusion rate (1 or 2 mL/kg/hr), for 24 hours and were compared at molar equivalent dose rates.
A detailed clinical examination of each animal was performed twice daily and body temperature measurements and blood samples for clinical pathology were collected from all animals pre-dose and 6 hours, 12 hours, 24 hours and 72 hours post start of composition infusion. At the termination of the study, all animals were euthanized at their scheduled necropsy and complete necropsy examinations were performed. Selected tissues were collected, fixed and stored for potential future microscopic examination. The cephalic vein containing the infusion catheter was dissected intact along with the brachial vein and examined along its entire length. The location of the catheter tip was marked on the unfixed specimen. After fixation, the specimen was trimmed and processed to slide to provide transverse histologic sections representing the catheter tip and surrounding tissues both proximal and distal to the catheter tip (i.e., 1 cm distal to the catheter tip, at the catheter tip, and 1, 5, 10, 15, and 20 cm proximal to the catheter tip). Relative to the catheter tip, “proximal” was defined as closer to the heart and “distal” was defined as further from the heart.
Each compound was formulated with CAPTISOL® (7% w/v) in sterile water at a pH of 4. […]

The subject of data set [2] is dogs. The experiment in a line: Toxicological profile of compositions formulated at pH 4 or pH 6, 24 hour infusion at 3 μg/kg/min. In kind it is in vivo. As to conditions: 1:1 molar donor:CAPTISOL, infused at 3 μg/kg/min, FIG. 4. How it is done: For samples at a pH of 4, the compositions were prepared by admixing a 1:1 molar ratio of the nitroxyl donor:CAPTISOL®, lyophilizing the admixture, then diluting the lyophilized admixture into D5W. For samples at a pH of 6, the compositions were prepared by admixing a 1:1 molar ratio of the nitroxyl donor:CAPTISOL®, lyophilizing the admixture, then diluting the lyophilized admixture into D5W with 5 mM potassium phosphate. Compounds were infused at a rate of 3 μg/kg/min.

A short description of data set [3]: In vitro stability (half-life) in dog plasma. In kind it is in vitro ADME. As to conditions: male, dog, plasma, pH 7.4, 5 μM, dog plasma pH 7.4 with anticoagulant, 37° C.; read-out: T1/2 (minutes) Dog. As to the method: (§1) Certain compounds from Tables 1 and 2 and CXL-1020 were tested for their stability in phosphate buffered saline (PBS) and plasma. The assay system comprised (i) PBS, or plasma from rat, dog or human (at least 3 donors, male, pooled) at pH 7.4, and (ii) for tests conducted in plasma, an anticoagulant (sodium heparin or sodium citrate). Each test compound (5 μM) was incubated in PBS or plasma at 37° C. on a THERMOMIXER® with shaking. Three samples (n=3) were taken at each of seven sampling time points: 0, 10, 30, 60, 90, 180 and 360 minutes. The samples were immediately combined with 3 volumes (i.e., 3 times the volume of PBS or plasma) of acetonitrile containing 1% formic acid and an internal standard to terminate the reaction. AB SCIEX API 3000 LC-MS/MS analysis of the test compounds was performed without a standard curve. Half-lives (T1/2) of the test compounds were determined from graphs of the percent remaining values using the peak area response ratio. For compounds tested multiple times, the value provided in the Table represents an average of the replicate assays.

Data set [4] in a line: In vitro stability (half-life) in human plasma. The format is in vitro ADME. The settings on record: male, human plasma pH 7.4 with anticoagulant, 37° C., read-out: T1/2 (minutes) Human. How it is done:
as §1

Data set [5] can be described thus: In vitro stability (half-life) in phosphate buffered saline (PBS) pH 7.4. As to conditions: pH 7.4, 5 μM, PBS pH 7.4, 37° C., read-out: T1/2 (minutes) PBS. The format is physicochemical. How it is done:
as §1

A short description of data set [6]: Exploratory studies on the cause of CXL-1020 side effects (byproduct, alternative short half-life donors). The format is in vivo. The settings on record: studies conducted with the byproduct. How it is done: Exploratory studies were continued to determine the cause of the undesirable side effects of CXL-1020 at the higher, but still clinically desirable, doses. […] Studies were conducted with alternative Nitroxyl donors that were structurally unrelated to CXL-1020 but had similar half-lives for nitroxyl donation (half-lives of about 2 minutes). In all instances, local vascular side effects at the catheter tip were observed.

Molecules are shown by their SMILES.

Take `O=S(=O)(NO)c1ccc(Cl)s1` [Compound 86, 5-Chloro-N-hydroxythiophene-2-sulfonamide]: the “NOAEL (μg/kg/min) (molar equivalent to CXL-1020)” value with dogs [1] (based on microscopic pathology markers (edema, hemorrhage, vascular and perivascular inflammation)) is no less than 180 µg/kg/min. In addition, the “toxicological profile relative to CXL-1020” value in the data set with dogs [1] (microscopic pathology, Table 8) is “substantially improved toxicological profile relative to CXL-1020”. The “NOAEL (μg/kg/min) (actual)” value with beagle dogs (based on clinical pathology markers (WBC, fibrinogen, CRP), 24 hour infusion, CAPTISOL 7% w/v, pH 4) came out at 3 µg/kg/min. The “NOAEL compared with CXL-1020” value in the data set with beagle dogs (clinical pathology markers) is given as “significantly higher than that of CXL-1020”. Besides, the “effect of increasing infusate pH from approximately 4 to approximately 6 on toxicology” value in the data set with dogs [2] is listed as “improved the toxicology”. Further, the half-life at 5 μM in data set [3] worked out at 12 min; in data set [4], 18 min; in data set [5], 38 min.

`CS(=O)(=O)c1ccccc1S(=O)O` [byproduct of CXL-1020]: in data set [6], the side effects entry is “negative”.

Values taken from US10245249B2, “Pharmaceutical compositions comprising nitroxyl donors” (Cardioxyl Pharmaceuticals, Inc., priority 2013, dated 2019).
